Assay: Determination of stability in upper digestive tract and simulated colonic release (SGF, SIF, SCF; dialysis bag, UV 230 nm)
Assay type: physicochemical
Settings: cumulative release after SGF and SIF
Method: 6. Determination of Stability in Upper Digestive Tract and Simulated Colonic Release
A simulated gastric fluid (SGF, a pH of 1.2) consists of 2.95 g/L of sodium chloride and 8 ml/L of hydrochloric acid. A paclitaxel capsule (1 mg/ml of paclitaxel (dry weight)) is added to the SGF containing 3.2 g/L of pepsin and placed in a sealed dialysis bag (8,000-14,000 Da), then the dialysis bag is soaked in the SGF containing 3% (v/w) Tween-20 and stirred at 100 rpm at 37±0.5° C., and 2 ml of a release medium is withdrawn at 30 min, 60 min, 90 min, and 120 min respectively. An equal volume of the fresh SGF is added to maintain a volume after each sampling.
A pH value of the SGF system is adjusted to 6.8 with disodium hydrogen phosphate and a fresh porcine trypsin solution at 30 mg/mL is added into the dialysis bag to obtain a simulated intestinal fluid (SIF). 2 ml of a release medium is taken out at 30 min, 60 min, 90 min, and 120 min respectively and a concentration of paclitaxel is determined. An equal volume of the fresh release medium is added to maintain a volume after each sampling. […]
The concentration of paclitaxel is measured with an ultraviolet spectrophotometer at a wavelength of 230 nm.

release amount (dissolution rate) in a stomach-small intestine: about 25%
SMILES: CC(=O)O[C@H]1C(=O)[C@@]2(C)[C@H]([C@H](OC(=O)c3ccccc3)[C@]3(O)C[C@H](OC(=O)[C@H](O)[C@@H](NC(=O)c4ccccc4)c4ccccc4)C(C)=C1C3(C)C)[C@]1(OC(C)=O)CO[C@@H]1C[C@@H]2O [raw paclitaxel, paclitaxel]

Source: patent US11771676B2, “Method for preparing high-load oral paclitaxel capsule for slow release in colon” (Jiangnan University, priority 2022, dated 2023)
